Results: patent US10238738B2, “Methods of modulating immune system responses” (priority 2014, dated 2019)

Experiments:
[1] = tested on: primary human macrophages, neutrophils, and immortalized epithelial cells; test: Cytokine production in primary human cells (ELISA); assay type: cell-based
Experimental: Relative expression was calculated using the 2^−ΔΔCT method following normalization of target gene abundance to GAPDH. Quantitative measurements of cytokines were performed using ELISA kits form R&D Systems (KC, IL-23, IFN-β) or BD Biosciences (IL-1β, IL-8, IL-6, IL-12p70, TNF-α). Nuclear extracts were prepared from Jurkat T cells and NF-κB subunit binding was determined using the TransAM® Transcription Factor ELISA (Active Motif). Microarray
Whole blood was taken by venipuncture from human volunteers. Peripheral blood mononuclear cells (PBMCs) were isolated using Ficoll-Paque (GE). PBMCs (2×10^6 cells/ml) were incubated for one hour at 37° C. to allow monocytes to adhere. Following removal of non-adherent cells, monocytes were re-suspended and incubated for 7 days in RPMI 1640, 10% FBS, 1% glutamax, 1% penicillin streptomycin, containing 100 ng/ml recombinant human Granulocyte macrophage-colony stimulating factor (GM-CSF) (BioLegend). For infections, cells were detached using accutase (Sigma) and seeded at 2×10^5 cells/well in 48 well plates without antibiotics. Human neutrophils were isolated from citrated whole blood taken from healthy volunteers by venipuncture using Ficoll-Paque (GE) as described previously (McCaw et al., 2003).

[2] = tested on: THP-1 macrophages; test: qRT-PCR analysis of THP-1 macrophages treated with synthetic HBP and TLR ligands; assay type: cell-based, human; settings: 4 hr, with PAM3CSK4 or flagellin; FIG. 3c
Experimental: FIG. 3(c), qRT-PCR analysis of THP-1 macrophages treated with synthetic HBP (sHBP), PAM3CSK4 (PAM3), or flagellin (FLAG) for 4 hr, expressed as fold increase relative to untreated after normalization to GAPDH. Data represent ≥3 independent experiments performed in duplicate. All error bars±s.e.m. *P<0.05, **P<0.01 by ANOVA.
THP-1 cells were maintained in RPMI supplemented with 10% FBS and 1% glutamax and differentiated to macrophages with 50 ng/ml PMA for 48 hr, followed by a 48 hr rest period prior to stimulation. […] Results are expressed as fold change compared to untreated.
RNA was isolated using an RNeasy kit (Qiagen) per manufacturers' protocol. cDNA was synthesized using the iScript cDNA synthesis kit (Bio-Rad) and treated with TURBO DNase (Life Technologies). cDNA was amplified using SsoAdvanced SYBR Green (Bio-Rad) using a C1000 thermal cycler (Bio-Rad).

O=P(O)(O)OC[C@@H](O)[C@H]1OC(OP(=O)(O)O)[C@@H](O)[C@@H](O)[C@@H]1O (stereo partly drawn) [HBP, D-glycerol-D-manno-heptose-1,7-bisphosphate] was tested, and the “IL-8, IL-6 and TNFα production” value ([1]; 24 hr, FIG. 8a-c) was “induced IL-8, IL-6, and TNFα production”, the “Th17 polarizing cytokines IL-6 and IL-23” value ([1]; primary human macrophages) was “induced significant amounts” and the “Activation of THP-1 macrophages in combination with TLR ligands” value [2] was “synergistically activated THP-1 macrophages”.
